Results: the NIST ThermoML archive (doi:10.1021/je9008969)
± gives the expanded uncertainty stated by the source.

Legend:
[1] = Liquid; Distillation
[2] = cn = amount concentration of the nth substance listed, in mol/dm3; details: 298.15 K, 101 kPa, Liquid, Alternating current cell with electrodes
[3] = mn = molality of the nth substance listed, in mol/kg; details: 298.15 K, 101 kPa, Liquid, Alternating current cell with electrodes

## CC(=O)CC(C)C [4-methylpentan-2-one]
[1]
  Normal boiling temperature: 114.20 ± 0.5 °C

## CCCCCCCCCCCCCCCCCC[N+](C)(C)C.[O-][Cl+3]([O-])([O-])[O-] [N,N,N-trimethyl-1-octadecanaminium perchlorate] + CC(=O)CC(C)C
[2]; c1 = 0.0001049
  molar conductivity: 0.00634 ± 0.00013 S·m2/mol
[2]; c1 = 0.0001371
  molar conductivity: 0.00601 ± 0.00012 S·m2/mol
[2]; c1 = 0.0001741
  molar conductivity: 0.00568 ± 0.00011 S·m2/mol
[2]; c1 = 0.0002263
  molar conductivity: 0.00531 ± 0.00011 S·m2/mol
[2]; c1 = 0.0002892
  molar conductivity: 0.00497 ± 9.9e-05 S·m2/mol
[2]; c1 = 0.0003809
  molar conductivity: 0.00458 ± 9.2e-05 S·m2/mol
[2]; c1 = 0.0004892
  molar conductivity: 0.00425 ± 8.5e-05 S·m2/mol
[2]; c1 = 0.0006311
  molar conductivity: 0.00392 ± 7.8e-05 S·m2/mol
[2]; c1 = 0.0008148
  molar conductivity: 0.00361 ± 7.2e-05 S·m2/mol
[2]; c1 = 0.001062
  molar conductivity: 0.0033 ± 6.6e-05 S·m2/mol
[2]; c1 = 0.001386
  molar conductivity: 0.00302 ± 6e-05 S·m2/mol
[2]; c1 = 0.001802
  molar conductivity: 0.00276 ± 5.5e-05 S·m2/mol
[2]; c1 = 0.002337
  molar conductivity: 0.00251 ± 5e-05 S·m2/mol
[2]; c1 = 0.003032
  molar conductivity: 0.00229 ± 4.6e-05 S·m2/mol

## CCCCC[N+](CCCCC)(CCCCC)CCCCC.[O-][Cl+3]([O-])([O-])[O-] [tetrapentylammonium perchlorate] + CC(=O)CC(C)C
[3]; m1 = 9.66e-05
  molar conductivity: 0.00743 ± 0.00015 S·m2/mol
[3]; m1 = 0.0001207
  molar conductivity: 0.00719 ± 0.00014 S·m2/mol
[3]; m1 = 0.0001685
  molar conductivity: 0.0068 ± 0.00014 S·m2/mol
[3]; m1 = 0.0002146
  molar conductivity: 0.00647 ± 0.00013 S·m2/mol
[3]; m1 = 0.0002922
  molar conductivity: 0.00606 ± 0.00012 S·m2/mol
[3]; m1 = 0.0004004
  molar conductivity: 0.00562 ± 0.00011 S·m2/mol
[3]; m1 = 0.0005296
  molar conductivity: 0.00524 ± 0.00011 S·m2/mol
[3]; m1 = 0.0007017
  molar conductivity: 0.00487 ± 9.7e-05 S·m2/mol
[3]; m1 = 0.0009021
  molar conductivity: 0.00468 ± 9.4e-05 S·m2/mol
[3]; m1 = 0.001262
  molar conductivity: 0.00413 ± 8.3e-05 S·m2/mol
[3]; m1 = 0.001674
  molar conductivity: 0.0038 ± 7.6e-05 S·m2/mol
[3]; m1 = 0.002257
  molar conductivity: 0.00347 ± 6.9e-05 S·m2/mol
[3]; m1 = 0.003014
  molar conductivity: 0.00318 ± 6.4e-05 S·m2/mol
[3]; m1 = 0.004036
  molar conductivity: 0.0029 ± 5.8e-05 S·m2/mol
[3]; m1 = 0.0054
  molar conductivity: 0.00265 ± 5.3e-05 S·m2/mol

## CCCC[N+](CCCC)(CCCC)CCCC.[O-][Cl+3]([O-])([O-])[O-] [tetrabutylammonium perchlorate] + CC(=O)CC(C)C
[2]; c1 = 9.747e-05
  molar conductivity: 0.00773 ± 0.00015 S·m2/mol
[2]; c1 = 0.0001341
  molar conductivity: 0.00737 ± 0.00015 S·m2/mol
[2]; c1 = 0.0001902
  molar conductivity: 0.00693 ± 0.00014 S·m2/mol
[2]; c1 = 0.0002367
  molar conductivity: 0.00662 ± 0.00013 S·m2/mol
[2]; c1 = 0.0003186
  molar conductivity: 0.00622 ± 0.00012 S·m2/mol
[2]; c1 = 0.0004325
  molar conductivity: 0.00577 ± 0.00012 S·m2/mol
[2]; c1 = 0.0005781
  molar conductivity: 0.00535 ± 0.00011 S·m2/mol
[2]; c1 = 0.0007683
  molar conductivity: 0.00495 ± 9.9e-05 S·m2/mol
[2]; c1 = 0.001016
  molar conductivity: 0.00457 ± 9.1e-05 S·m2/mol
[2]; c1 = 0.00138
  molar conductivity: 0.00418 ± 8.4e-05 S·m2/mol
[2]; c1 = 0.001839
  molar conductivity: 0.00383 ± 7.7e-05 S·m2/mol
[2]; c1 = 0.002457
  molar conductivity: 0.00351 ± 7e-05 S·m2/mol
[2]; c1 = 0.003309
  molar conductivity: 0.0032 ± 6.4e-05 S·m2/mol
[2]; c1 = 0.004418
  molar conductivity: 0.00292 ± 5.8e-05 S·m2/mol
[2]; c1 = 0.005893
  molar conductivity: 0.00267 ± 5.3e-05 S·m2/mol

## CCCCCC[N+](CC)(CC)CC.[O-][Cl+3]([O-])([O-])[O-] [N,N,N-triethyl-1-hexanaminium perchlorate] + CC(=O)CC(C)C
[2]; c1 = 9.437e-05
  molar conductivity: 0.00808 ± 0.00016 S·m2/mol
[2]; c1 = 0.0001362
  molar conductivity: 0.00766 ± 0.00015 S·m2/mol
[2]; c1 = 0.0001739
  molar conductivity: 0.00732 ± 0.00015 S·m2/mol
[2]; c1 = 0.0002195
  molar conductivity: 0.00695 ± 0.00014 S·m2/mol
[2]; c1 = 0.0002862
  molar conductivity: 0.00655 ± 0.00013 S·m2/mol
[2]; c1 = 0.0003746
  molar conductivity: 0.00614 ± 0.00012 S·m2/mol
[2]; c1 = 0.0004856
  molar conductivity: 0.00574 ± 0.00012 S·m2/mol
[2]; c1 = 0.0006345
  molar conductivity: 0.00534 ± 0.00011 S·m2/mol
[2]; c1 = 0.000817
  molar conductivity: 0.00498 ± 0.0001 S·m2/mol
[2]; c1 = 0.001056
  molar conductivity: 0.00462 ± 9.2e-05 S·m2/mol
[2]; c1 = 0.001385
  molar conductivity: 0.00426 ± 8.5e-05 S·m2/mol
[2]; c1 = 0.00181
  molar conductivity: 0.00392 ± 7.8e-05 S·m2/mol
[2]; c1 = 0.002334
  molar conductivity: 0.00362 ± 7.2e-05 S·m2/mol
[2]; c1 = 0.003049
  molar conductivity: 0.00333 ± 6.7e-05 S·m2/mol
[2]; c1 = 0.003975
  molar conductivity: 0.00307 ± 6.1e-05 S·m2/mol

## CCCCCC[N+](CCCCCC)(CCCCCC)CCCCCC.[O-][Cl+3]([O-])([O-])[O-] [tetrahexylammonium perchlorate] + CC(=O)CC(C)C
[2]; c1 = 9.876e-05
  molar conductivity: 0.00727 ± 0.00015 S·m2/mol
[2]; c1 = 0.0001295
  molar conductivity: 0.00705 ± 0.00014 S·m2/mol
[2]; c1 = 0.0001762
  molar conductivity: 0.00672 ± 0.00013 S·m2/mol
[2]; c1 = 0.0002207
  molar conductivity: 0.00645 ± 0.00013 S·m2/mol
[2]; c1 = 0.0002798
  molar conductivity: 0.00613 ± 0.00012 S·m2/mol
[2]; c1 = 0.0003687
  molar conductivity: 0.00578 ± 0.00012 S·m2/mol
[2]; c1 = 0.0004788
  molar conductivity: 0.00543 ± 0.00011 S·m2/mol
[2]; c1 = 0.0006209
  molar conductivity: 0.00509 ± 0.0001 S·m2/mol
[2]; c1 = 0.0008088
  molar conductivity: 0.00475 ± 9.5e-05 S·m2/mol
[2]; c1 = 0.001056
  molar conductivity: 0.00441 ± 8.8e-05 S·m2/mol
[2]; c1 = 0.00138
  molar conductivity: 0.00409 ± 8.2e-05 S·m2/mol
[2]; c1 = 0.001782
  molar conductivity: 0.0038 ± 7.6e-05 S·m2/mol
[2]; c1 = 0.002321
  molar conductivity: 0.00351 ± 7e-05 S·m2/mol
[2]; c1 = 0.003006
  molar conductivity: 0.00324 ± 6.5e-05 S·m2/mol
[2]; c1 = 0.003917
  molar conductivity: 0.00299 ± 6e-05 S·m2/mol
